Measurements reported in patent US20030105093A1, “MTP activity-lowering compositions” (priority 1998, published 2003).
Counter-ions that a name gives are not always drawn.

Legend:
[1] = system: MTP (microsomal triglyceride transfer protein); assay: MTP activity-lowering activity: liver MTP activity after 2 weeks' dosing of rats; assay type: in vivo; conditions: SD rats, liver homogenate, control group 9.09 ± 1.0
Experimental: SD rats weighing about 200 g in groups of 6 were given 20 mg or 60 mg of the hydrochloride of the amino acid of the invention in 10 ml of water in 3 divided doses daily for 2 weeks. Thereafter, the liver was excised and homogenized using a homogenizing buffer (50 mM Tris (pH 7.4), 50 mM potassium chloride, 1.5 mM EDTA, leupeptin (5 μg/ml) and 2 mM phenylmethylsulfonyl fluoride) and the homogenate was centrifuged to give a liver homogenate. This liver homogenate was adjusted to a protein concentration of about 2 mg/mL with the same homogenizing buffer and 1 part of deoxycholate solution (0.56%, pH 7.5) was added to 10 parts of the homogenate. The reaction was then carried out at 4° C. for 30 minutes, whereby MTP was liberated from the microsomal fraction. The membrane fraction was then removed by centrifugation to give a supernatant. This supernatant was diluted with Tris buffer (a buffer solution containing 15 mM Tris (pH 7.4), 40 mM NaCl, 1 mM EDTA, 0.02% NaN3) and dialyzed against the same buffer at 4° C. overnight. The dialysate thus obtained was analyzed for MTP activity by the method of J. R. Wetterau [Science, 258, 999 (1992)].

[2] = system: HepG2 cells (apo B secretion); assay: Apo B antisecretory activity (1): apo B secreted into medium by HepG2 cells, ELISA; assay type: cell-based, human; conditions: for Apo B secretions (μg/well): 24 hours' culture, control group 9.92 ± 0.80
Experimental: HepG2 cells (100×10^4 cells/dish) were sown on 3.5 cm dishes and precultured using 1 ml DME (containing 10% FCS) medium per dish. Following this preculture, the cells were washed with DME medium twice, added to the test medium, and cultured at 37° C. under 95% air-5% carbon dioxide for 24 hours. The test medium was prepared by dissolving cycloalliin in dimethyl sulfoxide and diluted with DME medium containing 1% ESA and 0.5 mM oleic acid to a final cycloalliin concentration of 10^−6 M or 10^−4 M.
After 24 hours' culture, the medium was recovered and the amount of apo B secreted into the medium was determined by ELISA. Thus, anti-human apo B antibody (a 100-fold dilution) was distributed into a 96-well ELISA plate, 100 μL per well, and incubated at 37° C. for 2 hours. Then, 100 μL/well of Block Ace was added and the plate was further incubated at 37° C. for 2 hours. The wells were washed with PBS-Tween×3 and 100 μL each of apo B standard solution and HepG2 culture were added, followed by further incubation at 4° C. for 16 hours. After the wells were washed with PBS-Tween×3, 100 μL/well of anti-human apo B marker antibody (a 200-fold dilution) was added and the plate was incubated at 37° C. for 2 hours. The wells were washed with PBS-Tween×3, then 100 μL/well of the substrate solution was added, and the plate was incubated at 25° C. for 30 minutes. The reaction was stopped by adding 50 μL of 4.5 M H2SO4 and the absorbance at 482 nm was measured to estimate the amount of apo B secretion.

[3] = system: HepG2 cells (TG secretion); assay: TG antisecretory activity: secreted [14C]-labeled triglyceride in HepG2 medium; assay type: cell-based; conditions: HepG2, 10 μM, 24 hours of culture; control group 161.2 ± 2.2
Experimental: HepG2 cells were cultured in DME medium supplemented with 1% BSA and 0.5 mM oleic acid for 24 hours. Then, the medium was changed to 1% BSA-DME containing 10 μM of the amino acid of the invention and simultaneously 0.5 μci of [^14C] acetic acid was added. The cells and medium were recovered after 24 hours of culture. The recovered cells were homogenized by sonication, and after quantitation of protein, the amount of secreted triglyceride (TG) was determined from the amount of labeled lipid in the medium.

[4] = 60 mg daily in 3 divided doses for 2 weeks

Compound: C[C@H]1C[S@+]([O-])C[C@@H](C(=O)O)N1 [Cycloalliin HCl, (1S, 3R, 5S)-5-methyl-1,4-thiazane-3-carboxylic acid 1-oxide]
- MTP activity (%) ([1]; 20 mg daily in 3 divided doses for 2 weeks): 6.12 ± 0.7 %
- MTP activity (%) [1, 4]: 4.92 ± 1.0 %

Compound: C[C@H]1C[S@+]([O-])C[C@@H](C(=O)O)N1 [Cycloalliin, (1S, 3R, 5S)-5-methyl-1,4-thiazane-3-carboxylic acid 1-oxide]
- Apo B secretions (μg/well) ([2]; HepG2, 10^−4 M): 7.67 ± 1.31 μg/well
- Effect on apo B secretion (in words) ([2]; HepG2, 10^−6 M or 10^−4 M, 24 hours, vs control group): significant suppression of apo B secretion
- Apo B secretions (μg/well) ([2]; HepG2, 10^−6 M): 7.54 ± 1.13 μg/well

Compound: S-methyl-L-cysteine sulfoxide [S-methyl-L-cysteine sulfoxide HCl]
- MTP activity (%) [1, 4]: 5.43 ± 0.6 %

Compound: S-n-propyl-L-cysteine sulfoxide
- TG secretions ([^14C] dpm × 10^−2/mg protein) [3]: 105.8 ± 18.9 [^14C] dpm × 10^−2/mg protein
